Source: paper PMC10349806 (Nature Communications, 2023)
Where a chain is given by its changes, count along the chain named. Values joined by “and” are separate entries in the source; they are usually repeats but may differ in a detail not shown here. Equal values may be shown once.

Key:
PfCRT variant F291A = target: T1, PfCRT variant F291A (Plasmodium falciparum, UniProt Q9N623, A220S/F291A/I356T/K76T/M74I/N326S/N75E/Q271E/R371I); assay: CQ uptake assay, oocytes expressing F291A; assay type: cell-based
T1 sequence (Q9N623 1-424 M74I/N75E/K76T/A220S/Q271E/F291A/N326S/I356T/R371I): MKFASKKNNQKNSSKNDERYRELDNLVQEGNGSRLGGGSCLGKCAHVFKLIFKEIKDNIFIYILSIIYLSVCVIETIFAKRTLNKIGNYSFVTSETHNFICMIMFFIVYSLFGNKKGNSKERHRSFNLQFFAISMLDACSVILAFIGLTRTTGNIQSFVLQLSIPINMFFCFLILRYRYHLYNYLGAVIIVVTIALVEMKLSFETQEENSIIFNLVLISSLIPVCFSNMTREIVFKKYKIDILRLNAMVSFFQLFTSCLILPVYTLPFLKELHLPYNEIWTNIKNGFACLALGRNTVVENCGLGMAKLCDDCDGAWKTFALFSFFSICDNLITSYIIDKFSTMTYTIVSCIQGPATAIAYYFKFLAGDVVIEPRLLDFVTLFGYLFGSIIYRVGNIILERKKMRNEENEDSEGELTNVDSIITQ
Protocol: (§1) Site-directed mutagenesis of PfCRT^Dd2 was performed as described using the megaprimer method with overlap extension[21],[54]. The primer pairs used are listed in Supplementary Table 6. Please note that a codon-optimized and oocyte-adapted version of PfCRT^Dd2 was used[22] (Supplementary Fig. 16). The resulting DNA fragment was cloned into the SP64T expression vector and verified by sequencing.
(§2) Oocytes were obtained as described previously. Briefly, adult (>2 years old) female X. laevis frogs (NASCO) were anesthetized in a cooled solution of ethyl 3-amino benzoate methanesulfonate (0.1%, w/v), followed by a surgical removal of parts of the ovary. The ovary lobes were carefully dissected and small pieces of oocytes were incubated in Ca^2+-free ND96 buffer (96 mM NaCl, 2 mM KCl, 1 mM MgCl2 buffered with 5 mM HEPES/NaOH, pH 7.5) supplemented with collagenase D (0.1%, w/v; Roche), BSA (0.5%, w/v), and 9 mm Na2HPO4 at 18 °C for 14-16 h while gentle shaking. After incubation, the oocytes were carefully washed several times with ND96 buffer (96 mM NaCl, 2 mM KCl, 1.8 mM CaCl2, 1 mM MgCl2 buffered with 5 mM HEPES/NaOH, pH 7.5) supplemented with 100 mg l^−1 gentamycin). Defolliculated and healthy-looking stage V-VI oocytes were manually selected for RNA microinjection. The RNA was generated as following: The codon-optimized sequences of PfCRT variants were cloned into the pSP64T expression vector. After vector linearization using the restriction endonucleases BamHI or SalI (New England Biolabs), transcription was performed using the in vitro SP6 mMessage mMachine Kit (Ambion)[34]. The obtained RNA was kept at −80 °C and diluted with nuclease-free water to a concentration of 0.6 μg μl^−1. Precision-bore glass capillary tubes (3.5-inch glass capillaries; Drummond Scientific Co.) were pulled on a vertical puller (P-87 Flaming/Brown micropipette puller, Sutter Instrument Co.), graduated, and placed on a microinjector (Nanoject II Auto-Nanoliter Injector, Drummond Scientific Co.). 50 nl of nuclease-free water alone (control oocytes) or 50 nl of 0.6 μg μl^−1 RNA were injected under stereomicroscopic control. Injected oocytes were incubated for 46–72 h at 18 °C with twice-daily buffer changes before usage in experiments.
Drug uptake assays were performed as described previously[21],[22],[24],[34]. […] The direction of radio-labeled drug transport is here from the mostly acidic extracellular solution (pH 4.5 or 6.0, as indicated) into the oocyte cytosol (pH ∼ 7.2), which corresponds to the efflux of drug from the acidic digestive vacuole (pH 5.2) into the parasite cytoplasm (pH 7.2). The topology of PfCRT in the oolemma is such that both the N- and C-terminus face the extracellular milieu[3],[22]. In the parasite, the N- and C-terminus face the lumen of the digestive vacuole. CQ uptake kinetics were performed by incubating oocytes in ND96 buffer adjusted to a pH of 4.5, 5.0, 5.5, or 6.0 and supplemented with 50 nM [^3H]CQ and one of 7 different CQ concentrations (10 µM, 50 µM, 100 µM, 200 µM, 300 µM, 400 µM, 500 µM CQ). The reaction was stopped at the 60 min time point, which is in the linear uptake range[22],[34] (Supplementary Fig. 17). […] The radioactivity of each sample was measured using a liquid scintillation analyzer Tri-Carb 4910 TR (PerkinElmer). Oocytes that were injected with water instead of RNA were analyzed in parallel, representing the uptake of a drug by diffusion and/or endogenous permeation pathways. […]

PfCRT variant D310A = target: T2, PfCRT variant D310A (Plasmodium falciparum, UniProt Q9N623, A220S/D310A/I356T/K76T/M74I/N326S/N75E/Q271E/R371I); assay: CQ uptake assay, oocytes expressing D310A; assay type: cell-based
T2 sequence (Q9N623 1-424 M74I/N75E/K76T/A220S/Q271E/D310A/N326S/I356T/R371I): T1 sequence (Q9N623 1-424 M74I/N75E/K76T/A220S/Q271E/F291A/N326S/I356T/R371I) with A291F, D310A
Protocol: as §1, §2
Drug uptake assays were performed as described previously[21],[22],[24],[34]. […] The direction of radio-labeled drug transport is here from the mostly acidic extracellular solution (pH 4.5 or 6.0, as indicated) into the oocyte cytosol (pH ∼ 7.2), which corresponds to the efflux of drug from the acidic digestive vacuole (pH 5.2) into the parasite cytoplasm (pH 7.2). The topology of PfCRT in the oolemma is such that both the N- and C-terminus face the extracellular milieu[3],[22]. In the parasite, the N- and C-terminus face the lumen of the digestive vacuole. CQ uptake kinetics were performed by incubating oocytes in ND96 buffer adjusted to a pH of 4.5, 5.0, 5.5, or 6.0 and supplemented with 50 nM [^3H]CQ and one of 7 different CQ concentrations (10 µM, 50 µM, 100 µM, 200 µM, 300 µM, 400 µM, 500 µM CQ). The reaction was stopped at the 60 min time point, which is in the linear uptake range[22],[34] (Supplementary Fig. 17). For determination of the amount of drug uptake for each oocyte, the reaction medium was removed and the oocytes were washed three times with 2 ml of ice-cold ND96 buffer. Each oocyte was individually transferred to a scintillation vial containing 5% sodium dodecyl sulfate (200 μl) for lysis. The radioactivity of each sample was measured using a liquid scintillation analyzer Tri-Carb 4910 TR (PerkinElmer). Oocytes that were injected with water instead of RNA were analyzed in parallel, representing the uptake of a drug by diffusion and/or endogenous permeation pathways. The resulting value represents the “background“ level of drug accumulation in oocytes (in-depth discussion in[22]). […]

[1] = F291A, 50 µM CQ, 1 h, mean ± SEM
[2] = pH 4.5, single replicates, Fig 1d left
[3] = pH 6.0, single replicates, Fig 1d left
[4] = D310A, 50 µM CQ, 1 h, mean ± SEM

SMILES: CCN(CC)CCCC(C)Nc1ccnc2cc(Cl)ccc12 (centres unmarked) [CQ, chloroquine]
- Activity at pH 4.5 (PfCRT variant F291A; [1]): 1.61 ± 0.31 pmol h-1 oocyte-1
- Activity at pH 6.0 (PfCRT variant F291A; [1]): 3.23 ± 0.24 pmol h-1 oocyte-1
- R-value (PfCRT variant F291A; F291A, CQ transport at pH 4.5 / pH 6.0): 0.52 ± 0.11
- F291A transport activity pH 4.5 (PfCRT variant F291A; [2]): 1.94 pmol oocyte-1 h-1 and 2.47 pmol oocyte-1 h-1 and 0.96 pmol oocyte-1 h-1 and 1.07 pmol oocyte-1 h-1
- F291A transport activity pH 6.0 (PfCRT variant F291A; [3]): 2.78 pmol oocyte-1 h-1 and 3.29 pmol oocyte-1 h-1 and 4.00 pmol oocyte-1 h-1 and 2.84 pmol oocyte-1 h-1
- Activity at pH 4.5 (PfCRT variant D310A; [4]): 0.96 ± 0.15 pmol h-1 oocyte-1
- Activity at pH 6.0 (PfCRT variant D310A; [4]): 1.25 pmol h-1 oocyte-1 and 1.25 ± 0.18 pmol h-1 oocyte-1
- R-value (PfCRT variant D310A; D310A, CQ transport at pH 4.5 / pH 6.0): 0.77 and 0.77 ± 0.07
- D310A transport activity pH 4.5 (PfCRT variant D310A; [2]): 0.65 pmol oocyte-1 h-1 and 1.30 pmol oocyte-1 h-1 and 0.92 pmol oocyte-1 h-1
- D310A R-value (PfCRT variant D310A; pH 4.5 vs pH 6.0, Fig 1d left): 0.79 and 0.92 and 0.61
- D310A transport activity pH 6.0 (PfCRT variant D310A; [3]): 0.82 pmol oocyte-1 h-1 and 1.42 pmol oocyte-1 h-1 and 1.51 pmol oocyte-1 h-1
